# Measured values from patent US5306819A, “Certain aryl a cycloalkyl fused imidazopyrazinols; and new class of GABA brain receptor ligands” (Neurogen Corporation, priority 1992, dated 1994).
# Target: GABAa receptor
# Experiment: assay for GABAa receptor activity: inhibition of 3H-RO15-1788 (3H-Flumazenil) binding to rat cortical tissue
# Conditions: 3H-RO15-1788 0.5 nM, 30 min at 4°
# Procedure: The pharmaceutical utility of compounds of this invention are indicated by the following assay for GABAa receptor activity.
# Assays are carried out as described in Thomas and Tallman (J. Bio. Chem. 156: 9838-9842, J. Neurosci. 3:433-440, 1983). Rat cortical tissue is dissected and homogenized in 25 volumes (w/v) of 0.05M Tris HCl buffer (pH 7.4 at 4° C.). The tissue homogenate is centrifuged in the cold (4°) at 20,000×g for 20'. The supernatant is decanted and the pellet is rehomogenized in the same volume of buffer and again centrifuged at 20,000×g. The supernatant is decanted and the pellet is frozen at -20° C. overnight. The pellet is then thawed and rehomogenized in 25 volumes (original wt/vol) of buffer and the procedure is carried out twice. The pellet is finally resuspended in 50 volumes (w/vol of 0.05M Tris HCl buffer (pH 7.4 at […]).
# Incubations contain […] of tissue homogenate, […] of radioligand 0.5 nM (^3 H-RO15-1788 [^3 H-Flumazenil] specific activity 80 Ci/mmol), drug or blocker and buffer to a total volume of […]. Incubations are carried for 30 min at 4° then are rapidly filtered through GFB filters to separate free and bound ligand. Filters are washed twice with fresh 0.05M Tris HCl buffer (pH 7.4 at 4° C.) and counted in a liquid scintillation counter. […] diazepam is added to some tubes to determine nonspecific binding. Data are collected in triplicate determinations, averaged and % inhibition of total specific binding is calculated. Total Specific Binding=Total-Nonspecific. In some cases, the amounts of unlabeled drugs is varied and total displacement curves of binding are carried out. Data are converted to a form for the calculation of IC50 and Hill Coefficient (nH).
row,SMILES,IC50 [nM]
1,"O=c1c(-c2ccccc2F)nc2c[nH]c3c(n1-2)CCCC3 [Compound 1, 2-(2-fluorophenyl)-imidazo-[1,2-a]-6,7,8,9-tetrahydroquinoxalin-1(5H)-one]",11
2,"COc1ccc(-c2nc3c[nH]c4c(n-3c2=O)CCCC4)c(F)c1 [Compound 8, 2-(2-Fluoro-4-methoxyphenyl)-imidazo-[1,2-a]-6,7,8,9-tetrahydroquinoxalin-1(5H)-one]",5.4
3,"COc1ccc(-c2nc3c[nH]c4c(n-3c2=O)CCCCC4)c(F)c1 [Compound 15, 2-(2-Fluoro-4-methoxyphenyl)-cyclohept[b]imidazo[2,1-f]pyrazin-1(5H)-one]",13
4,"COc1ccc(-c2nc3c[nH]c4c(n-3c2=O)CCC4)c(F)c1 [Compound 16, 2-(2-Fluoro-4-methoxyphenyl)-cyclopent[b]imidazo[2,1-f]pyrazin-1(5H)-one]",15

# System: GABA receptor
# Experiment: not given
# Conditions: Tallman et al., 1978; cited from earlier work
row,SMILES,Enhancement of benzodiazepine binding by GABA agonists is blocked
1,CN1CCc2cc3c(cc2[C@H]1[C@@H]1OC(=O)c2c1ccc1c2OCO1)OCO3 [(+) bicuculline],blocked
2,CN1CCc2cc3c(cc2[C@@H]1[C@H]1OC(=O)c2c1ccc1c2OCO1)OCO3 [(-) bicuculline],much less active
